From patent publication US7202268B2, “Derivatives of indole-3-carboxamide, preparation method thereof and application of same in therapeutics” (Sanofi-aventis, priority 2002, dated 2007) come the findings set out here.

As usually defined, the melting point is the temperature, or range, at which the solid turns liquid. For the compound `CCC(C)(C)NC(=O)c1cn(CCCSC)c2c(Cl)c(Cl)ccc12`, the melting point was in the range of 100 to 103 °C. To `CSCCCn1cc(C(=O)NCC(C)(C)C)c2ccc(Cl)c(Cl)c21` belongs 170 to 173 °C. The result for `CC(C)(C)CNC(=O)c1cn(CCCS(C)(=O)=O)c2c(Cl)c(Cl)ccc12` reads 208 to 211 °C.
